Measured values published in patent US12208108B2, “Drug targets of delayed aging and human brain diseases” (Texas Tech University System, priority 2016, dated 2025).

What was measured:
SHSY5Y cells [1] = experiment: Cell viability test (MTT assay); type: cell-based, Human
Procedure: Cell viability test (MTT assay). Mitochondrial respiration, an indicator of cell viability, was assessed in the SHSY5Y cells from control and experimental treatments (n=4), using the mitochondrial-dependent reduction of 3-(4,5-dimethyl-thiazol-2-yl)-2,5-diphenyl-tetrazolium bromide (MTT) to formazan as described in Manczak et al..

SHSY5Y cells [2] = experiment: Immunofluorescence analysis of Drp1, synaptophysin and PSD95; type: cell-based, Human
Procedure: Immunofluorescence analysis of Drp1, synaptophysin and PSD95. To determine the effect of Aβ and DDQ on Drp1, synaptophysin and PSD95 levels and localizations, immunofluorescence analysis was performed in cells treated as shown in FIG. 7.
Immunofluorescence analysis. To study immune-reactivity of proteins of interest, cells were grown on coverslips using regular cell culture medium and treated as shown in strategy FIG. 3 and performed immunofluorescence analysis using the antibodies in these treated and untreated cells as described by Manzcak et al. Cells were washed with warm PBS, fixed in freshly prepared 4% paraformaldehyde in PBS for 10 min, and then washed with PBS and permeabilized with 0.1% Triton-X100 in PBS. They were blocked with 1% blocking solution (Invitrogen) for 1 hr at room temperature. All neurons were incubated overnight with primary antibodies. The neurons were incubated with appropriate secondary antibodies. The cells were washed neurons 3 times with PBS, and slides were mounted. Photographs were taken with a multiphoton laser scanning microscope system (ZeissMeta LSM510). To quantify the immunoreactivity of proteins of interest, for each treatment 10-15 photographs were taken at ×20 magnification.

[3] = target: T1, colocalization of Drp1 and Aβ (Homo sapiens, UniProt O00429); experiment: Double-labeling immunofluorescence analysis of Drp1 and Aβ; type: cell-based
T1 construct: SHSY5Y cells incubated with Aβ peptide 1-42 (20 uM final concentration); Anaspec (Aβ 1-42 peptide); host or cells: SHSY5Y human neuroblastoma cells
T1 sequence (O00429 whole entry): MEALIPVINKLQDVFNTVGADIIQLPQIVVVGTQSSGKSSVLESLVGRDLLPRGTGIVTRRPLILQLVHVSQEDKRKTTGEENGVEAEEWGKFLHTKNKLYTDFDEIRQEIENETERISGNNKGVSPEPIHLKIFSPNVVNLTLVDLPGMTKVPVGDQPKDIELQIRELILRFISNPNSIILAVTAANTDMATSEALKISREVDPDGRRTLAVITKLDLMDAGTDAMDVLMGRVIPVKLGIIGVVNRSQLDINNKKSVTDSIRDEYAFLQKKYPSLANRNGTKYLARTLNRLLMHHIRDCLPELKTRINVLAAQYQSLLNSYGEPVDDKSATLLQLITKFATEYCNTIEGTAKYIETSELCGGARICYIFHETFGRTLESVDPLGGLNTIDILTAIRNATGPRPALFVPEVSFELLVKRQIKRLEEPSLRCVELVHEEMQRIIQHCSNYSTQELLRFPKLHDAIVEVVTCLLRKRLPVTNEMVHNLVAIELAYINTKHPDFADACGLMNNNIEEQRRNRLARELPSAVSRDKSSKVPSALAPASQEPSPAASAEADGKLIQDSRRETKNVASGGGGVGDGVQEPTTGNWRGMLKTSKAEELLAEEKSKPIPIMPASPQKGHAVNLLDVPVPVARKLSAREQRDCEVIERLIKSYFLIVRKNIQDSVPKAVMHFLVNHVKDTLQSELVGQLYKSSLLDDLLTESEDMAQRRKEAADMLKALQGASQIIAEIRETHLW
Procedure: Double-labeling immunofluorescence analysis of Drp1 and Aβ. To determine whether Drp1 localizes and interacts with Aβ, the inventors conducted double-labeling analysis of Drp1 and Aβ in DDQ pre-treated, post-treated and untreated, Aβ incubated cells.
Double labeling immunofluorescence analysis of Drp1 and Aβ. To determine the interaction between Drp1 and Aβ, the inventors conducted double-labeling immunofluorescence analysis, using an anti-Drp1 antibody (rabbit polyclonal, Santa Cruz Biotechnology) and 6E10 (Covance). As described earlier, the sections from AD patients and control subjects were deparaffinized and treated with sodium borohydrate to reduce autofluorescence.
For the first labeling, the Aβ incubated (DDQ pre-treated, post-treated and untreated) cells were incubated overnight with the anti-Drp1 antibody (1:200) at room temperature. On the day after this primary antibody incubation, the sections were washed with 0.5% Triton in PBS. They were then incubated with a secondary biotinylated anti-rabbit antibody at a 1:400 dilution (Vector Laboratories, Burlingame, Calif., USA) or a secondary biotinylated anti-mouse antibody (1:400) for 1 h at room temperature. They were incubated for 1 h with labeled streptavidin, an HRP solution (Molecular Probes). […]

SHSY5Y cells [4] = experiment: Transmission electron microscopy, mitochondrial number and length; type: cell-based, Human
Excerpt: Transmission electron microscopy. To determine the effects of DDQ on mitochondrial number and morphology, and any rescual effects of DDQ on mitochondria in the untreated and Aβ treated cells, the inventors used TEM on untreated, DDQ, Aβ+DDQ and DDQ+Aβ, treated SHSY5Y cells.
Transmission electron microscopy. To determine the effects of DDQ on the numbers of mitochondria and any rescue effects of DDQ on mitochondria in the mutant SHSY5Y neurons, the inventors used TEM on untreated and treated SHSY5Y cells (as shown in FIG. 3). [Batches 1-5]. All SHSY5Y cells batches 1-5 were fixed in […] sodium cacodylate (pH 7.2), 2.5% glutaraldehyde, 1.6% paraformaldehyde, 0.064% picric acid and 0.1% ruthenium red. They were gently washed and post-fixed for 1 h in 1% osmium tetroxide plus […] potassium ferricyanide, in 100 mm sodium cacodylate, pH 7.2. After a thorough rinsing in water, the SHSY5Y cells were dehydrated, infiltrated overnight in 1:1 acetone:Epon 812 and infiltrated for 1 h with 100% Epon 812 resin. They were then embedded in the resin. After polymerization, 60 to 80 nm thin sections were cut on a Reichert ultramicrotome and stained for 5 min in lead citrate. They were rinsed and post-stained for 30 min in uranyl acetate and then were rinsed again and dried. Electron microscopy was performed at 60 kV on a Philips Morgagne TEM equipped with a CCD, and images were collected at magnifications of ×1000-37 000. The numbers of mitochondria were counted in the SHSY5Y cells batches 1-5, and statistical significance was determined, using one-way ANOVA.

[5] = Aβ + DDQ (Aβ1-42 20 μM 6 hrs, then DDQ 24 hrs) vs untreated cells
[6] = DDQ 250 nM 24 hrs vs untreated cells
[7] = DDQ + Aβ (DDQ 24 hrs, then Aβ1-42 6 hrs) vs untreated cells
[8] = Aβ + DDQ (Aβ1-42 6 hrs, then DDQ 24 hrs) vs Aβ treated cells
[9] = DDQ + Aβ (DDQ 24 hrs, then Aβ1-42 6 hrs) vs Aβ treated cells
[10] = DDQ post-treated (Aβ + DDQ) vs cells treated with Aβ alone
[11] = DDQ-pre treated (DDQ + Aβ) vs cells treated with Aβ alone

CCOP(=O)(OCC)C(NCCc1ccc(O)c(O)c1)c1ccnc2ccccc12 (centres unmarked) [DDQ, diethyl(3,4-dihydroxyphenethylamine)(quinolin-4-yl)methylphosphonate]
Cell viability (SHSY5Y cells [1]; [5]): unchanged
Cell viability (SHSY5Y cells [1]; [6]): significantly increased
Cell viability (SHSY5Y cells [1]; DDQ + Aβ (DDQ 24 hrs, then Aβ1-42 6 hrs) vs Aβ incubated cells): Significantly increased
Cell viability (SHSY5Y cells [1]; [7]): unchanged
Drp1 levels (immunofluorescence) (SHSY5Y cells [2]; [8]): Significantly reduced levels
PSD95 levels (immunofluorescence) (SHSY5Y cells [2]; [8]): increased
synaptophysin levels (immunofluorescence) (SHSY5Y cells [2]; [8]): increased
Drp1 levels (immunofluorescence) (SHSY5Y cells [2]; [6]): decreased Drp1 levels were found in DDQ treated cells relative to untreated cells, but this was not significant
Drp1 levels (immunofluorescence) (SHSY5Y cells [2]; [9]): Significantly reduced levels
PSD95 levels (immunofluorescence) (SHSY5Y cells [2]; [9]): increased
synaptophysin levels (immunofluorescence) (SHSY5Y cells [2]; [9]): increased
co-localization of Drp1 with Aβ ([3]; DDQ post-treated Aβ incubated cells vs Aβ incubated cells alone): reduced co-localization
co-localization of Drp1 with Aβ ([3]; DDQ pre-treated Aβ incubated cells vs Aβ incubated cells alone): reduced co-localization
mitochondrial length (SHSY5Y cells [4]; [5]): not significantly changed
number of mitochondria (SHSY5Y cells [4]; [5]): approximately equal number
mitochondrial length (SHSY5Y cells [4]; [6]): significantly increased
number of mitochondria (SHSY5Y cells [4]; [6]): reduced
mitochondrial length (SHSY5Y cells [4]; [7]): not significantly changed
number of mitochondria (SHSY5Y cells [4]; [7]): approximately equal number
mitochondrial length (SHSY5Y cells [4]; [10]): significantly increased
number of mitochondria (SHSY5Y cells [4]; [10]): significantly reduced
mitochondrial length (SHSY5Y cells [4]; [11]): significantly increased
number of mitochondria (SHSY5Y cells [4]; [11]): significantly reduced
